Assay results: article PMC11894060, “Accelerating discovery of bioactive ligands with pharmacophore-informed generative models” (Nature Communications, 2025)
Like-named read-outs stand apart in the source and are kept apart here.

What was measured:
[1] = tested on: HCT116 cell line; test: CellTiter-Glo cell viability assay on HCT116; format: cell-based, human
Description: Cell viability assays were conducted through CellTiter-Glo assay services provided by Conradbio (Conradbio, China). The protocol is briefly described as follows. Firstly, when the cell confluence reaches 80%, cells are collected and counted. Subsequently, a cell suspension is diluted, and 80 μl of the suspension is seeded into each well of a 96-well U-bottom plate. The plate is then placed in a 37 °C, 5% CO2 incubator for optimal cell growth. After 24 h of incubation, a 20 μl aliquot of a diluted compound solution is added to specific wells on the plate, 0.5% dimethyl sulfoxide (DMSO) is used as a negative control. Following the compound addition, the plate is returned to the incubator for an additional day. Upon completion of the incubation period, the CellTiter-Glo assay (Promega) is performed according to the manufacturer’s manual. This assay is designed to measure cell viability based on luminescence, providing insights into the impact of the compounds on cellular health. Finally, data calculation is carried out to analyze the results of the CTG assay using Prism 8.

[2] = Preliminary in vivo pharmacokinetic experiments in mice
[3] = target: T1, PLK1 (Homo sapiens, UniProt P53350); test: PLK1 kinase ADP-Glo assay (in vitro kinase activity); format: biochemical; parameters: 2 μl of PLK1 enzyme (15 ng/well); conditions: for selectivity for PLK1 compared to other Plks (in words): PLK1 vs PLK2/PLK3
T1 sequence (P53350 whole entry): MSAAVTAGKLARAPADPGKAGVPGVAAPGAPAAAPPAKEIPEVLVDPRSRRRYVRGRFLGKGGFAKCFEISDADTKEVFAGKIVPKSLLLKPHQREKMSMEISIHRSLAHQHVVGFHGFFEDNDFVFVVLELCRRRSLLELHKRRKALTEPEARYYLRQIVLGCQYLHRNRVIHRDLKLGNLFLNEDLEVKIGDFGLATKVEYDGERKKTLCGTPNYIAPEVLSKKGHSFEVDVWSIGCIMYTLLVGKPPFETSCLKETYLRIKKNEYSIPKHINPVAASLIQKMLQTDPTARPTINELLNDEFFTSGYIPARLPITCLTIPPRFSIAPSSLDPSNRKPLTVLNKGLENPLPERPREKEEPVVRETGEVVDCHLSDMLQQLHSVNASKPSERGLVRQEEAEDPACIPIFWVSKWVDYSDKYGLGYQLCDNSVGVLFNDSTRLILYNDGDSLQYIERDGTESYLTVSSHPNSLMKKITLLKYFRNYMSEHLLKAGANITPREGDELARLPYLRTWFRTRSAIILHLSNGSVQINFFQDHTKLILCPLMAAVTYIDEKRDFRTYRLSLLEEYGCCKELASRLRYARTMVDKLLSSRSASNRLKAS
Description: (§1) In vitro kinase activity assays were conducted through ADP-Glo assay services provided by Conradbio (Conradbio, China). The protocol for the PLK1 assay is described as follows (protocols for other kinases are very similar). Enzyme, substrate, ATP, and compounds were diluted in a Kinase Buffer composed of 40 mM Tris (pH 7.5), 20 mM MgCl2, 0.1 mg/ml BSA, and 50 μM DTT. In a 384-well low-volume plate, 1 μl of the compound or 5% dimethyl sulfoxide (DMSO), 2 μl of PLK1 enzyme (15 ng/well), and 2 μl of substrate/ATP mix (final concentration: 20 μM ATP, 0.2 μg/μl Casein) were added to each well. The plate was then incubated at 25 °C for 60 min to allow for kinase activity. Following the enzymatic reaction, 5 μl of ADP-Glo^TM Reagent was added to each well, and the plate was incubated at 25 °C for an additional 40 min. Subsequently, 10 μl of Kinase Detection Reagent was added, and the plate was incubated for a final 30 min at 25 °C. Luminescence was recorded with an integration time of 0.5 s.
(§2) IC50 values were calculated using Prism 8 by fitting the following equation:4 Y=Bottom+(Top−Bottom)/(1+10^(logIC50−X)×HillSlope), where X is a log of concentration, Y is a response, and top and bottom are the responses of controls. Each assay was repeated at least three times, and we computed the mean and standard deviation for the values.

[4] = target: FAK kinase (Homo sapiens, UniProt Q05397); test: FAK ADP-Glo kinase assay (selectivity); format: biochemical; conditions: for IC50: ADP-Glo assay, read-out: IC50 against FAK; for selectivity for PLK1 over FAK: FAK IC50 versus PLK1 IC50
Sequence of FAK kinase (Q05397 whole entry): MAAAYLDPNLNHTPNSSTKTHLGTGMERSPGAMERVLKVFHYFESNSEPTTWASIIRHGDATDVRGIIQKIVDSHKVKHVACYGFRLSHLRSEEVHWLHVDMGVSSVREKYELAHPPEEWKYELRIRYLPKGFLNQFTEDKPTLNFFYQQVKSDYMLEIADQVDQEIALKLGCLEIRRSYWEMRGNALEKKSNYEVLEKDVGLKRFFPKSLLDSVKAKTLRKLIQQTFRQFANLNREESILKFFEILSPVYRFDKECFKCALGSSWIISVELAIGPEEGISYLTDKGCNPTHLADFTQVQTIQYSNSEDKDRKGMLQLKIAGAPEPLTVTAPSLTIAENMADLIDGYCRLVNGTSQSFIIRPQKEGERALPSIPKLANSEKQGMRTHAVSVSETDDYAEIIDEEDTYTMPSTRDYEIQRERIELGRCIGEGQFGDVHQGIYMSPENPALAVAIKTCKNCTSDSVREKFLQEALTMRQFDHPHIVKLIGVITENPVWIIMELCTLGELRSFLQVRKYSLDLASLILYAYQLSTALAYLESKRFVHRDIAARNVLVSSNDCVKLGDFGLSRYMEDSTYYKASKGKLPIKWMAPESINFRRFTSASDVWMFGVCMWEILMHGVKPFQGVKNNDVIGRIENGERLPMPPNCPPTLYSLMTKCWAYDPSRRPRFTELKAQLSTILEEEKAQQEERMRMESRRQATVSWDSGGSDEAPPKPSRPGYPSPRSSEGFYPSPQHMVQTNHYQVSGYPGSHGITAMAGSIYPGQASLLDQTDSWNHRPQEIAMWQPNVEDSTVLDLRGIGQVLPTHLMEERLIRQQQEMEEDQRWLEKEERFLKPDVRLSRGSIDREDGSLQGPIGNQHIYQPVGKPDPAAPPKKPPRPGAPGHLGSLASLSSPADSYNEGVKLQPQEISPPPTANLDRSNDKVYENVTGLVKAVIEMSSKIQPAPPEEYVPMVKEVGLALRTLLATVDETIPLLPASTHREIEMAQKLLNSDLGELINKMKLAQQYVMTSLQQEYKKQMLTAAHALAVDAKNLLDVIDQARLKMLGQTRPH
Description: as §1, §2

[5] = target: T2, PLK2 (Homo sapiens, UniProt Q9NYY3); test: PLK2 ADP-Glo kinase assay (selectivity); format: biochemical; conditions: read-out: IC50 against PLK2
T2 sequence (Q9NYY3 whole entry): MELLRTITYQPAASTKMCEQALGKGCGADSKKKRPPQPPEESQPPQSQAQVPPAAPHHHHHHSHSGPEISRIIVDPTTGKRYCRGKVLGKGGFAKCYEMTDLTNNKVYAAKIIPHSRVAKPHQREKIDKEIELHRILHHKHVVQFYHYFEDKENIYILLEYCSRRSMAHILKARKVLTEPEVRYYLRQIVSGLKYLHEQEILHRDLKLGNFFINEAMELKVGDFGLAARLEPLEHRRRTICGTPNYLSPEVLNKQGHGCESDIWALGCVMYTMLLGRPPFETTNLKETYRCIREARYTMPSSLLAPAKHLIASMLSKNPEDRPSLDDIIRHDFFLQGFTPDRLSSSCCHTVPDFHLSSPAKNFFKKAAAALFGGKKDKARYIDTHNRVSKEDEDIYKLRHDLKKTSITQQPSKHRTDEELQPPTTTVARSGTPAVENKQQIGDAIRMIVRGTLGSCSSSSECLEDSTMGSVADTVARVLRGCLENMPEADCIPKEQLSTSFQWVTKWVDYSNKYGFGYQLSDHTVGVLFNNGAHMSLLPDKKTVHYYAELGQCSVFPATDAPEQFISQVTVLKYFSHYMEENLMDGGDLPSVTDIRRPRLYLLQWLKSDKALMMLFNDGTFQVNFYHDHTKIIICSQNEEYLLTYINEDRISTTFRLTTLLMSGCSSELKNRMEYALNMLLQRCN
Description: as §1, §2

[6] = target: T3, PLK3 (Homo sapiens, UniProt Q9H4B4); test: PLK3 ADP-Glo kinase assay (selectivity); format: biochemical; conditions: read-out: IC50 against PLK3
T3 sequence (Q9H4B4 whole entry): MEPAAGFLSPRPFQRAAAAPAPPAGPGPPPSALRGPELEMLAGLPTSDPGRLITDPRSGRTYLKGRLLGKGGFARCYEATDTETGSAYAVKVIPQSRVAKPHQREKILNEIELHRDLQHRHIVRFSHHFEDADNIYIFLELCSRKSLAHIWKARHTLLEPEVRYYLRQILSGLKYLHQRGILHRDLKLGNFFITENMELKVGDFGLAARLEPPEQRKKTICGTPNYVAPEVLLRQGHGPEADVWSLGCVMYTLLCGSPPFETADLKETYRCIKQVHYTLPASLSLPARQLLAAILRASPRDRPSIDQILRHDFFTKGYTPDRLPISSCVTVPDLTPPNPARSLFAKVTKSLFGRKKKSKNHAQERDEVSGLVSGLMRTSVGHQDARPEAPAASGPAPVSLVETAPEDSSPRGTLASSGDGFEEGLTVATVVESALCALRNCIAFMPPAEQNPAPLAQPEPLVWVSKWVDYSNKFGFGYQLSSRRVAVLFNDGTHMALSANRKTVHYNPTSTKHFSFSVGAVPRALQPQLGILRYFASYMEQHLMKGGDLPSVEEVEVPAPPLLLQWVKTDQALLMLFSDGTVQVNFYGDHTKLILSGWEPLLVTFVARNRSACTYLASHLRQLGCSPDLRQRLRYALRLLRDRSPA
Description: as §1, §2

[7] = target: T1, PLK1; parameters: method as in ExCAPE-DB [85]; conditions: known PLK1 ligands carrying the core substructures; ref ExCAPE-DB [85]; cited from earlier work
[8] = target: T3, PLK3; test: Activity against PLK3 (peer review response); format: biochemical; conditions: source not stated
[9] = target: T2, PLK2; test: Activity against PLK2 (peer review response); format: biochemical
[10] = target: T1, PLK1; test: In-house enzymatic activity (peer review response); format: biochemical; conditions: Onvansertib vs. Volasertib
[11] = ADP-Glo assay, mean ± standard deviation, n = 3 replicates, read-out: IC50 against PLK1
[12] = ADP-Glo assay, read-out: IC50 against PLK1 (bound stated in text)
[13] = IC50 with 90% confidence interval, read-out: 90% CI of IC50 against PLK1
[14] = IC50 with 95% confidence interval, read-out: 95% CI of IC50 against PLK1
[15] = IC50 with 99% confidence interval, read-out: 99% CI of IC50 against PLK1

Row | Structure (SMILES) | IC50 [3, 11] | IC50 [3, 12] | IC50 [3, 13] | IC50 [3, 14] | IC50 [3, 15] | pXC50 [7] | also measured
1 | CCS(=O)(=O)c1ccc2oc(Nc3ccc(C(C)C)cc3)nc2c1 [PubChem CID 2462953] | – | – | – | – | – | 5.6 | –
2 | CC[C@@H]1C(=O)N(C)c2cnc(Nc3ccc(C(=O)N[C@H]4CC[C@H](N5CCN(CC6CC6)CC5)CC4)cc3OC)nc2N1C(C)C [Volasertib] | – | – | – | – | – | – | activity against PLK3 (in words) [8]: low nanomolar; selectivity compared to Onvansertib (in words) ([9]; PLK1 vs PLK2 and PLK3): much worse selectivity; activity against PLK2 (in words) ([9]; source not stated): low nanomolar; enzymatic activity, in-house experiments [10]: 0.30 nM
3 | COc1cc2c(cc1Nc1nc(Nc3ccsc3C(N)=O)c3cc[nH]c3n1)N(C(=O)CN(C)C)CCC2 [GSK-2110236A] | – | – | – | – | – | 7.6 | –
4 | Cc1cc(Oc2ccc(C#N)cc2)nc(NCc2ccccc2)n1 [PubChem CID 1927680] | – | – | – | – | – | 5.6 | –

More lines, main results first:

Row | IC50 [3, 11] | IC50 [3, 12] | IC50 [3, 13] | IC50 [3, 14] | IC50 [3, 15] | Structure (SMILES) | pXC50 [7] | also measured
5 | 5.1 nM | < 1000 nM | 5.06 ± 1.64 nM | 5.06 ± 1.96 nM | 5.06 ± 2.57 nM | COc1ccc(N2CCN(C)CC2)cc1Nc1ncc(C)c(Oc2cccc3cc(C(N)=O)sc23)n1 [IIP0943] | – | inhibitory activity in HCT116 cell proliferation (in words) ([1]; HCT116 cell line): submicromolar; IC50 ([1]; Homo sapiens, HCT-116, CellTiter-Glo, mean ± standard deviation, n = 3 replicates, read-out: IC50 of cell proliferation inhibition, HCT116): 220 ± 3 nM; half-life compared to Onvansertib (in words) [2]: prolonged half-life; oral bioavailability compared to Onvansertib ([2]; ratio to Onvansertib): over two-fold; selectivity for PLK1 compared to other Plks (in words) [3]: high and excellent; IC50 [4]: 264 nM; selectivity for PLK1 over FAK [4]: over 50 fold; IC50 [5]: > 1000 nM; IC50 [6]: > 1000 nM
6 | > 10000 nM | – | – | – | – | COc1ccc(N2CCN(C)CC2)cc1Nc1ncc2ccn(-c3ccccc3-c3nc(C)no3)c2n1 [IIP0944] | – | –
7 | 927 ± 129 nM | < 1000 nM | 928 ± 122 nM | 928 ± 146 nM | 928 ± 192 nM | COc1ccc(N2CCN(C)CC2)cc1Nc1ncc(C)c(Oc2ccccc2-n2ccnn2)n1 [IIP0945] | – | –
8 | 37.6 nM | < 1000 nM | 37.6 ± 3.55 nM | 37.6 ± 4.23 nM | 37.6 ± 5.56 nM | COc1ccc(N2CCN(C)CC2)cc1Nc1ncc(C(F)(F)F)c(Oc2cccc3[nH]c(C(N)=O)cc23)n1 [IIP0942] | – | selectivity for PLK1 compared to other Plks (in words) [3]: excellent; IC50 [4]: 87.4 nM; selectivity for PLK1 over FAK [4]: over two-fold; IC50 [5]: > 1000 nM; IC50 [6]: > 1000 nM
